Experimental data taken from patent publication US10988458B2, “Apoptosis signal-regulating kinase 1 inhibitors and methods of use thereof” (Enanta Pharmaceuticals, Inc., priority 2017, dated 2021).

Biological target: ASK1 kinase (Homo sapiens (Human), UniProt Q99683)
Test: ASK1 kinase inhibition, HTRF KinEASE-STK TR-FRET assay
Type: biochemical
Settings: 5 nM ASK1, 1 uM STK3 peptide substrate, 100 uM ATP, 3 hours
Method: The ability (IC50) of compounds to inhibit ASK1 kinase activity was determined by HTRF® KinEASE™ Assay System.
ASK1 was purchased from Thermofisher (Catalogue #PV4011), ATP was purchased from Sigma (Catalogue #A7699), HTRF® KinEASE™ Assay System was obtained from Cisbio (Bedford, Mass.). ½ Area plate was purchased from Perkin Elmer (Catalogue ##6005560). HTRF® KinEASE™-STK is a generic method for measuring serine/threonine kinase activities using a time-resolved fluorescence resonance energy transfer (TR-FRET) immunoassay. The IC50 value for each compound was determined in the presence of compound (various concentration from 0 to 10 μM) and a fixed amount of ATP and peptide substrates. The test compound, 1 uM STK3 peptide substrate, and 5 nM of ASK1 kinase are incubated with kinase reaction buffer containing 50 mM HEPES pH 7.5, 0.01% BRIJ-35, 10 mM MgCl2, and 1 mM EGTA for 30 minutes. 100 uM ATP is added to start kinase reaction and incubated for 3 hours. The STK3-antibody labeled with Eu^3+-Cryptate and 125 nM streptavidin-XL665 are mixed in a single addition with stop reagents provided by the Cisbio kit used to stop the kinase reaction. Fluorescence is detected using an Envision Multilabeled 2014 reader from PerkinElmer. The Fluorescence is measured at 615 nm (Cryptate) and 665 nm (XL665) and a ratio of 665 nm/615 nm is calculated for each well. The resulting TR-FRET is proportional to the phosphorylation level. Staurosporine was used as the positive control. IC50 was determined by XLfit 5.3.
By using above method, the inhibition of ASK1 was tested for the compound of formula (I). IC50 ranges are as follows: A<1 nM; 1 nM B<10 nM; 10 nM<C<100 nM; 100 nM<D<1 μM; […].

Sequence of ASK1 kinase (Q99683 whole entry): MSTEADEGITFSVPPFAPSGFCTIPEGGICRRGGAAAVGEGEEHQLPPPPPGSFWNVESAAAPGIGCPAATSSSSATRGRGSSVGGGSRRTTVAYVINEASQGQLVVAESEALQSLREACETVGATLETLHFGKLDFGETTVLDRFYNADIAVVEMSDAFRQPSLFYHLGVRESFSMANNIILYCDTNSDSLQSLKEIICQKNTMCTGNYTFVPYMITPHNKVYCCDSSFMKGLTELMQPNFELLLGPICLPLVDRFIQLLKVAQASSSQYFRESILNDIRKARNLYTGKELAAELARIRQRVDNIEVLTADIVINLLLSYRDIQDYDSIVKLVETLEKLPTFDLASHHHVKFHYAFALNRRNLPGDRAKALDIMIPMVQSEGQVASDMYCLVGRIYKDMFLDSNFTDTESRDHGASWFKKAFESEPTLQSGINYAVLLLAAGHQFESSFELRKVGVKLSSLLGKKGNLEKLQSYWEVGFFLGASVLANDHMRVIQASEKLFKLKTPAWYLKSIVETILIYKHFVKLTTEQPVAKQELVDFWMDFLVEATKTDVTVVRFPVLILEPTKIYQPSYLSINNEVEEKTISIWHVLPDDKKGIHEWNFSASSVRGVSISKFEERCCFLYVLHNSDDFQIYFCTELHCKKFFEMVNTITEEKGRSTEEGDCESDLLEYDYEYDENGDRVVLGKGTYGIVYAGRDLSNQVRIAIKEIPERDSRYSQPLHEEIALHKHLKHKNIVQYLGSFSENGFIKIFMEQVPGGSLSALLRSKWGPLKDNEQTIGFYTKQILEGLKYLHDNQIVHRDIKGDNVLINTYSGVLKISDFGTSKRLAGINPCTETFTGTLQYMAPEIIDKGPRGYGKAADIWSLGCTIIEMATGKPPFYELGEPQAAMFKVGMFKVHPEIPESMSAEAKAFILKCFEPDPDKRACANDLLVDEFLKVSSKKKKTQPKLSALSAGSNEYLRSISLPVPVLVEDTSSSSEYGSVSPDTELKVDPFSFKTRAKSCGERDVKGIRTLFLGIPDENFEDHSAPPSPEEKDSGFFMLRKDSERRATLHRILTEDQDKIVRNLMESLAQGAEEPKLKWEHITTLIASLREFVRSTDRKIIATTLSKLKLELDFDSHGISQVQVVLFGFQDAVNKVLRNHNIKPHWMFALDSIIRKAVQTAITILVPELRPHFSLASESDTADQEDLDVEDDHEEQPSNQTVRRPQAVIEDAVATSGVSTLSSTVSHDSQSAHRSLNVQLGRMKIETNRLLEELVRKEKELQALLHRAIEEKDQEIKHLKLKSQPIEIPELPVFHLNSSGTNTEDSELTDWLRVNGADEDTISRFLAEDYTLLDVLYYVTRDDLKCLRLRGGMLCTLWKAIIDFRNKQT

Row | Compound | IC50 [nM]
1 | Cc1cc(F)c(C(=O)Nc2cccc(-n3cnnc3C(C)C)n2)cc1-n1cnc(C2CC2)c1 [Example 1c, 5-(4-cyclopropyl-1H-imidazol-1-yl)-2-fluoro-N-(6-(3-isopropyl-4H-1,2,4-triazol-4-yl)pyridin-2-yl)-4-methylbenzamide] | > 1000
2 | Cc1cc(F)c(C(=O)Nc2cccc(-n3nnnc3C(C)C)n2)cc1-n1cnc(C(F)(F)F)c1 [Example 2b] | 100 to 1000
3 | CC(=O)OC[C@@H](C)n1nnnc1-c1cccc(NC(=O)c2cc(-n3cnc(C4CC4)c3)c(C)cc2F)n1 [Example 6a, (R)-2-(5-(6-(5-(4-cyclopropyl-1H-imidazol-1-yl)-2-fluoro-4-methyl-benzamido)pyridin-2-yl)-1H-tetrazol-1-yl)propyl acetate] | 100 to 1000
4 | Cc1cc(F)c(C(=O)Nc2cccc(-c3nnnn3C(C)C(=O)O)n2)cc1-n1cnc(C2CC2)c1 (centres unmarked) [Example 19a] | 100 to 1000
5 | Cc1cc(F)c(C(=O)Nc2ccnc(-c3nnn[nH]3)n2)cc1-n1cnc(C2CC2)c1 [Example 36a] | > 1000
